Like-named read-outs stand apart in the source and are kept apart here.
Legend:
[1] = system: STAM model of non-alcoholic steatohepatitis; assay: In vivo efficacy study in the STAM model of non-alcoholic steatohepatitis (Example 1); set-up: species or system C57BL/6 mice
Procedure: Steatohepatitis (Treatment period: 6 to 9 wks and 9-12 weeks)
The study involves 14-day-pregnant C57BL/6 mice. NASH was established by a single subcutaneous injection of 200 μg streptozotocin (Sigma, USA) after birth and feeding with a high fat diet (HFD, 57% kcal fat, CLEA Japan, Japan) ad libitum after 4 weeks of age (day 28±2). Randomization of NASH mice into groups of 12 mice at 6 weeks of age (day 42±2) and groups of 12 mice at 9 weeks of age (day 63±2), the day before the start of treatment, respectively. NASH animals were dosed from age 6-9 weeks (Study 1), or from age 9-12 weeks (Study 2) with either: vehicle, Compound A, OCA or Compound A. A non-disease vehicle-control group of was included in both Study 1 and Study 2. These animals were fed with a normal diet (CE-2; CLEA Japan) ad libitum.
PK samples were collected and stored at ≤−60° C. Animals were dosed according to the dosing schedule below. Each animal was sacrificed 5 hours after last morning dose on the last day of study treatment (the evening dose of cenicriviroc or vehicle […] that day due to sacrifice).
Measurements: • The following parameters were measured or monitored daily: individual body weight, survival, clinical signs and behavior of mice. • Pharmacokinetic measurements: PK samples were collected from 4 animals per time point per compound. PK samples were for Compound A at hours 1 and 24 on Day 6 (n=4 per timepoint) for both monotherapy and combination groups. PK samples were taken for Cenicriviroc on Day 10 at hours 2 and 12 (n=4 per timepoint) for both monotherapy and combination groups. Only one PK sample was collected per animal using the first 8 animals per group, per the schedule below:
Mice were sacrificed at 9 weeks of age (study 1) or at 12 weeks of age (study 2).
The following samples were collected: plasma, liver (fresh liver samples for gene expression analysis were collected at 5 hr post the last morning (AM) dose for each animal), stool. Organ weight was measured.
The following biochemical assays were performed: Non-fasting blood glucose in whole blood by Life Check (Eidia, Japan); serum ALT by FUJI DRI-CHEM (Fujifilm, Japan); serum triglyceride; serum MCP-1, RANTES (CCLS) and MIP-1a/MIP-1 quantification by a commercial ELISA kit; liver triglyceride by Triglyceride E-test kit (Wako, Japan); liver hydroxyproline quantification by hydrolysis method; histological analyses for liver section; HE staining and estimation of NAFLD Activity score; Sirius-red staining and estimation of fibrosis area (with and without perivascular space subtracted); oil red staining and estimation of fat deposition area; F4/80 immunohistochemistry staining and estimation of inflammation area; alpha-SMA immunohistochemistry staining and estimation of α-SMA positive area Gene expression assays using total RNA from the liver.
Statistical tests were performed using one-way ANOVA followed by Dunnett's test and the Mann-Whitney test, as appropriate, for the multiple group comparisons. P values <0.05 are considered statistically significant.

[2] = system: STAM mouse model of NASH; assay: Compound A versus OCA in the STAM mouse model of NASH (Example 2); assay type: in vivo; conditions: Compound A 3 to 30 mg/kg vs OCA 25 mg/kg, 3 weeks
Excerpt: FIGS. 1 and 2 describe an in-vivo efficacy study of Compound A versus OCA in the STAM model of non-alcoholic steatohepatitis for a treatment period of 6-9 weeks. FIG. 2 refers to the results on NAFLD Activity Score; FIG. 1 to Sirius-red positive area.
NASH was induced for 6 weeks prior to treatment with the indicated compound (and dose). Then, they have been treated with the indicated compound for 3 weeks prior to sacrifice.
NAFLD Activity Score from H&E stained liver sections from STAM disease (NASH) animals treated for 3 weeks with the indicated compound or vehicle. Disease was initiated in animals for 6 weeks prior to dosing and then animals were treated with Vehicle-1, Vehicle-2, Compound A (3 to 30 mg/kg) or OCA (25 mg/kg) for 3 weeks. NAS was determined by the method of Kleiner (Kleiner et al. 2005).
Sirius red stained liver sections from STAM disease (NASH) animals treated for 3 weeks with the indicated compound or vehicle. Disease was initiated in animals for 6 weeks prior to dosing and then animals were treated with Vehicle-1, Vehicle-2, Compound A (3 to 30 mg/kg) or OCA (25 mg/kg) for 3 weeks. Quantitative analysis of Sirius Red sections were performed using ImageJ software.

[3] = system: ANIT-induced cholestasis; assay: Rat ANIT-induced cholestasis chronic treatment model; assay type: in vivo
Procedure: The efficacious concentration of Compound A was determined by PK/PD modeling from the rat ANIT-induced cholestasis chronic treatment model.

[4] = Human study SAD/MAD: safety, tolerability and plasma pharmacokinetics; assay type: in vivo
Procedure: (§1) Methods: SAD: Subjects received 5 to 750 mg of Compound A (7 cohorts: 6 active, 2 placebo); subjects from one cohort returned for a second dosing cycle with a high-fat meal (3 active, 1 placebo). MAD: Subjects received 5 to 250 mg of Compound A daily for 14 days (5 cohorts; 6 active, 2 placebo). All adverse events (AEs) were captured, and plasma levels of Compound A and PD biomarkers were determined pre- and post-dosing at various time points.

[5] = system: FGF19, C4, total bile acid; assay: Human study SAD/MAD: PD biomarkers; assay type: in vivo
Procedure: as §1

[6] = system: nonalcoholic steatohepatitis patients; conditions: long term administration; cited from earlier work
[7] = system: PBC; conditions: in vivo; cited from earlier work
[8] = system: NASH in adults with liver fibrosis; conditions: human, in vivo; cited from earlier work

With `Cn1nc(C(=O)N(Cc2ccccc2)Cc2ccc(C(=O)O)cc2)c2c1-c1cc(Cl)ccc1OC2` [Compound A, 4-((N-benzyl-8-chloro-1-methyl-1,4-dihydrochromeno[4,3-c]pyrazole-3 carboxamido)methyl)benzoic acid] the “Ballooning, NAS (mean +/− SD)” value ([1]; Study 1) was 1.3 ± 0.8, the “Ballooning, Score 0 (number of animals/group)” value ([1]; Study 1) was 2 and the “Ballooning, Score 1 (number of animals/group)” value ([1]; Study 1) was 3. For the same molecule, the “Ballooning, Score 2 (number of animals/group)” value ([1]; Study 1) was 5, the “Fibrosis, NAS (mean +/− SD)” value ([1]; Study 1) was 0.51 ± 0.25 and the “Inflammatory infiltrates, Score 0 (number of animals/group)” value ([1]; Study 1) was 7. The “Inflammatory infiltrates, Score 1 (number of animals/group)” value ([1]; Study 1) was 2, the “Inflammatory infiltrates, Score 2 (number of animals/group)” value ([1]; Study 1) was 1 and the “Inflammatory infiltrates, Score 3 (number of animals/group)” value ([1]; Study 1) was 0. The “NAS (mean +/− SD)” value ([1]; Study 1, dosed from age 6-9 weeks) was 2.7 ± 1.1, the “Ballooning, NAS (mean +/− SD)” value ([1]; Study 2) was 0.7 ± 0.8 and the “Ballooning, Score 0 (number of animals/group)” value ([1]; Study 2) was 5. For the same molecule, the “Ballooning, Score 1 (number of animals/group)” value ([1]; Study 2) was 3, the “Ballooning, Score 2 (number of animals/group)” value ([1]; Study 2) was 2 and the “Fibrosis, NAS (mean +/− SD)” value ([1]; Study 2) was 0.55 ± 0.32. The “Inflammatory infiltrates, Score 0 (number of animals/group)” value ([1]; Study 2) was 3, the “Inflammatory infiltrates, Score 1 (number of animals/group)” value ([1]; Study 2) was 1 and the “Inflammatory infiltrates, Score 2 (number of animals/group)” value ([1]; Study 2) was 4. For the same molecule, the “Inflammatory infiltrates, Score 3 (number of animals/group)” value ([1]; Study 2) was 2, the “NAS (mean +/− SD)” value ([1]; Study 2, dosed from age 9-12 weeks) was 2.7 ± 1.1 and the “Ballooning compared with the STAM-Vehicle group” value ([1]; both studies) was “trend for the reduction of ballooning”. For the same molecule, the “Fibrosis area compared with the STAM-Vehicle group” value ([1]; both studies) was “trend for the reduction of the fibrosis area”, the “Inflammatory infiltrates compared with the STAM-Vehicle group” value ([1]; both studies 1 and 2) was “significant reduction of Inflammatory infiltrates” and the “NAS compared with the STAM-Vehicle group” value ([1]; both studies 1 and 2) was “significant reduction in NAS”. The Reduction of fibrosis [2] was “to a greater extent than OCA”, the “Reduction of hepatic steatosis” value [2] was “to a greater extent than OCA” and the “Reduction of hepatocellular ballooning” value [2] was “to a greater extent than OCA”. The “Reduction of lobular inflammation” value [2] was “to a greater extent than OCA”, the ALT reduction ([3]; 1.5 mg/kg) was 75% and the AST reduction ([3]; 1.5 mg/kg) was 80%. For the same molecule, the GGT reduction ([3]; 1.5 mg/kg) was 85%, the “ANIT-induced histologic alterations in the liver” value ([3]; rat, in vivo) was “reduced the ANIT-induced histologic alterations in the liver” and the accumulation ratio ([4]; MAD) was “mild”. The Steady-state reached ([4]; MAD, daily for 14 days) was at most 5 days, the AUC decrease ([4]; SAD, with high-fat meal) was 26% and the Cmax decrease ([4]; SAD, with high-fat meal) was 58%. For the same molecule, the “Severe drug-related AEs” value ([4]; any cohort) was “No severe drug-related AEs were reported”, the “Safety and pharmacological activity” value ([4]; daily doses of 5 mg to 750 mg) was “safe and pharmacological active” and the SAEs attributed ([4]; daily doses up to 250 mg for 14 days) was “No SAEs have been attributed”. For the same molecule, the Tmax ([4]; human, plasma, oral, SAD, with high-fat meal, read-out: median Tmax) was 4 h, the Cmax ([4]; human, plasma, oral, SAD, 5-750 mg doses) was 177 to 12700 ng/mL and the half-life ([4]; human, plasma, oral, SAD, 5-750 mg doses, read-out: mean t1/2) was 11.7 to 23.5 h. For the same molecule, the Tmax ([4]; human, plasma, oral, SAD, 5-750 mg doses, read-out: median plasma Tmax) was 1.75 to 3 h, the Tolerability ([4]; maximum doses tested (750 mg SAD and 250 mg MAD)) was “well tolerated” and the “plasma FGF19 levels” value ([5]; MAD, Day 14) was “dose-dependent increase”. The “plasma FGF19 median Cmax” value ([5]; MAD, Day 14, 250 mg) was 979 pg/mL, the “serum C4 levels” value ([5]; MAD, similar dose range) was “decline” and the “total bile acid (TBA) levels” value ([5]; MAD, similar dose range) was “decline”. For the same molecule, the “FGF19 with increasing doses” value ([5]; doses even beyond 250 mg) was “continues to rise” and the “Serum FGF15 levels” value ([5]; in vivo) was “increased with Compound A treatment in a dose-dependent manner”.

In the case of `CC[C@H]1[C@@H](O)[C@@H]2[C@H](CC[C@]3(C)[C@@H]([C@H](C)CCC(=O)O)CC[C@@H]23)[C@@]2(C)CC[C@@H](O)C[C@@H]12` [OCA, Obeticholic acid], the Safety concerns [6] is listed as “can be associated with pruritus, as well as with increased LDL cholesterol”.

In the case of `C[C@H](CCC(=O)O)[C@H]1CC[C@H]2[C@@H]3[C@@H](O)C[C@@H]4C[C@H](O)CC[C@]4(C)[C@H]3CC[C@]12C` [UDCA, Ursodeoxycholic acid], the “population that does not respond” value [7] is given as 30-40%.

For `CCCCOCCOc1ccc(-c2ccc3c(c2)/C=C(/C(=O)Nc2ccc([S@@+]([O-])Cc4cncn4CCC)cc2)CCCN3CC(C)C)cc1` [cenicriviroc, (S,E)-8-(4-(2-butoxyethoxy)phenyl)-1-(2-methylpropyl)-N-(4-(((1-propyl-1H-imidazol-5-yl)methyl)sulfinyl)phenyl)-1,2,3,4-tetrahydrobenzo[b]azocine-5-carboxamide], the Adverse effects [8] is listed as “can induce fatigue or diarrhea in a small part of the patients”, the Fibrosis [8] is listed as “reduction of fibrosis” and the “Improvement of NAS” value [8] is listed as “no significant impact”.
